Data reported in ChEMBL document CHEMBL5584354, “Impact of Conjugation of the Reactive Oxygen Species (ROS)-Generating Catalytic Moiety with Membrane-Active Antimicrobial Peptoids: Promoting Multitarget Mechanism and Enhancing Selectivity” (J Med Chem, 2024).
≈ marks a conversion by molar mass, not a printed value. Calls of active or inactive are those of the source. No cut-off for these calls is given here. Non-standard residues stand in square brackets, D forms with d. Residues, ends and D or L forms follow the SMILES beside them. Gly(N(CH2)2(3-indolyl)) = O=C(O)CNCCc1c[nH]c2ccccc12; Nspe = C[C@H](NCC(=O)O)c1ccccc1; Nlys = NCCCCNCC(=O)O

How the values were obtained:
[1] = system: Acinetobacter baumannii; assay: Antibacterial activity against carbapenem-resistant Acinetobacter baumannii NMS1707 harboring extended-spectrum beta-lactamase assessed as inhibition of bacterial growth incubated for 24 hrs by broth dilution method; format: functional
[2] = system: Staphylococcus aureus; assay: Antibacterial activity against Staphylococcus aureus ATCC 25923 assessed as inhibition of bacterial growth incubated for 24 hrs by broth dilution method; format: functional
[3] = Toxicity in female ICR mouse assessed as dilatation of renal vein in kidney at 5 mg/kg, ip administered four doses for 12 hrs and measured 24 hrs post last dose by H and E staining based light microscopic analysis; format: organism-based; settings: in vivo, 36 h
[4] = Hemolytic activity in male Sprague-Dawley rat erythrocytes at 50 uM incubated for 1 hr by absorbance based method relative to control; format: toxicity, cell-based, Erythrocyte; settings: read-out: Activity
[5] = system: Escherichia coli; assay: (§1) Antibacterial activity against Escherichia coli K1 infected in female ICR mouse model of septic shock assessed as reduction in alveolar hemorrhage in lung at 5 mg/kg, ip pretreated for 1 hr followed by bacteria addition and further treated with 3 doses of compound every 4 hrs by H and E staining based light microscopic analysis; format: functional, organism-based; settings: time 9.0 hrs
[6] = system: Escherichia coli; assay: Antibacterial activity against Escherichia coli K1 infected in female ICR mouse model of septic shock assessed as reduction in AST level in serum at 5 mg/kg, ip pretreated for 1 hr followed by bacteria addition and further treated with 3 doses of compound every 4 hrs relative to control; format: functional; parameters: scale not given: the % may be the effect or the level left; settings: time 9 hrs
[7] = system: RAW264.7; assay: Inhibition of LPS-induced NF-kappaB pathway in mouse RAW264.7 cells assessed as reduction in NF-kappaB nuclear translocation at 10 uM preincubated for 1 hr followed by LPS addition and measured after 1 hr by immunofluorescence staining based confocal microscopic analysis; format: cell-based; settings: time 2.0 hrs
[8] = Toxicity in female ICR mouse assessed as dilatation of interstitial blood capillaries in kidney at 5 mg/kg, ip administered four doses for 12 hrs and measured 24 hrs post last dose by H and E staining based light microscopic analysis; format: organism-based; settings: in vivo, 36 h
[9] = Toxicity in female ICR mouse assessed as lymphocyte infiltration in kidney at 5 mg/kg, ip administered four doses for 12 hrs and measured 24 hrs post last dose by H and E staining based light microscopic analysis; format: organism-based; settings: in vivo, 36 h
[10] = system: Escherichia coli; assay: Antibacterial activity against Escherichia coli K1 infected in female ICR mouse model of septic shock assessed as reduction in endotoxin level at 5 mg/kg, ip pretreated for 1 hr followed by bacteria addition and further treated with 3 doses of compound every 4 hrs relative to control; format: functional; parameters: scale not given: the % may be the effect or the level left; settings: time 9 hrs
[11] = system: Erythrocyte; assay: Hemolytic activity in male Sprague-Dawley rat erythrocytes assessed as concentration required for 10% hemolysis incubated for 1 hr by absorbance based method; format: toxicity, cell-based
[12] = system: HEK293; assay: Cytotoxicity against HEK293 cells assessed as cell killing incubated for 24 hrs by MTS assay; format: toxicity, cell-based; settings: human, hek293, 24 h
[13] = system: Escherichia coli; assay: Antibacterial activity against Escherichia coli ATCC 25922 assessed as inhibition of bacterial growth incubated for 24 hrs by broth dilution method; format: functional
[14] = system: Escherichia coli; assay: as §1, with “in” for “in alveolar hemorrhage in”, “lung edema” for “lung”; format: functional, organism-based; settings: time 9.0 hrs
[15] = system: Lipopolysaccharide (LPS); assay: Binding affinity to Escherichia coli O111:B4 LPS at 0 to 25 uM BODIPY-TR-cadaverine substitution assay; format: subcellular; settings: dose 0-25 µM
[16] = system: RAW264.7; assay: Antiinflammatory activity in LPS-stimulated mouse RAW264.7 cells assessed as reduction in IL-6 production at 10 uM incubated for 16 hrs by ELISA relative to control; format: functional; parameters: scale not given: the % may be the effect or the level left
[17] = system: Escherichia coli; assay: Antibacterial activity against Escherichia coli K1 infected in female ICR mouse model of septic shock assessed as reduction in BUN level in serum at 5 mg/kg, ip pretreated for 1 hr followed by bacteria addition and further treated with 3 doses of compound every 4 hrs relative to control; format: functional; parameters: scale not given: the % may be the effect or the level left; settings: time 9 hrs
[18] = Hemolytic activity in male Sprague-Dawley rat erythrocytes at 25 uM incubated for 1 hr by absorbance based method relative to control; format: toxicity, cell-based, Erythrocyte; settings: read-out: Activity
[19] = Acute toxicity in female ICR mouse assessed as animal survival at 5 mg/kg, ip administered four doses for 12 hrs; format: organism-based; settings: in vivo
[20] = system: Escherichia coli; assay: Induction of lipid peroxidation in Escherichia coli ATCC 25922 assessed as increase in MDA level at 10 uM incubated for 2 hrs by TBARS assay; format: functional, organism-based
[21] = system: MRC5; assay: Cytotoxicity against human MRC5 cells assessed as cell killing incubated for 24 hrs by MTS assay; format: toxicity, cell-based; settings: mrc5, 24 h
[22] = system: Cell membrane; assay: Disruption of outer membrane in Escherichia coli ATCC 25922 assessed as increase in absorbance measured every 5 mins for 90 mins by nitrocefin assay; format: cell membranes; settings: dose 0-25 µM
[23] = Hemolytic activity in male Sprague-Dawley rat erythrocytes at 100 uM incubated for 1 hr by absorbance based method relative to control; format: toxicity, cell-based, Erythrocyte; settings: read-out: Activity
[24] = system: Escherichia coli; assay: as §1, with “infiltrated […]” for “alveolar hemorrhage”; format: functional, organism-based; settings: time 9.0 hrs
[25] = Hemolytic activity in male Sprague-Dawley rat erythrocytes assessed as concentration required for 50% hemolysis incubated for 1 hr by absorbance based method; format: toxicity, cell-based, Erythrocyte
[26] = Toxicity in female ICR mouse assessed as effect on AST level in serum at 5 mg/kg, ip administered four doses for 12 hrs and measured 24 hrs post last dose; format: organism-based; settings: in vivo, 36 h
[27] = system: DNA; assay: Binding affinity to pUC19 plasmid DNA (unknown origin) assessed as smearing and retardation of DNA bands at 25 uM incubated for 2 hrs by agarose gel imaging method; format: nucleic-acid assay
[28] = Selectivity index, ratio of HC10 for hemolytic activity in male Sprague-Dawley rat erythrocytes to MIC for antibacterial activity against Escherichia coli ATCC 25922; format: toxicity; settings: read-out: Selectivity Index

C[C@@H](c1ccccc1)N(CC(=O)N(CCCCN)CC(=O)N(CCc1c[nH]c2ccccc12)CC(=O)N(CCc1c[nH]c2ccccc12)CC(N)=O)C(=O)CN(CCCCN)C(=O)CN(CCCCN)C(=O)CN(C(=O)CN(C(=O)CN(CCCCN)C(=O)CN(C(=O)CN(C(=O)CN(CCCCN)C(=O)[C@H](Cc1c[nH]cn1)NC(=O)CNC(=O)CN)[C@@H](C)c1ccccc1)[C@@H](C)c1ccccc1)[C@@H](C)c1ccccc1)[C@@H](C)c1ccccc1 (H-GGH[Nlys][Nspe][Nspe][Nlys][Nspe][Nspe][Nlys][Nlys][Nspe][Nlys][Gly(N(CH2)2(3-indolyl))][Gly(N(CH2)2(3-indolyl))]-NH2)
MIC [1]: 3.1 µM (≈ 6.56 µg/mL) | MIC [2]: 12.5 µM (≈ 26.4 µg/mL) | Activity [3]: Non-Toxic | hemolysis at 1 h, 50 µM [4]: 4.83% | Activity [5]: Active | Activity [6]: 32.7% | inhibition [7]: Active | Activity [8]: Non-Toxic | Activity [9]: Non-Toxic | Activity [10]: 44.3% | HC10 [11]: > 100 µM | LC50 [12]: 39.5 µM | MIC [13]: 6.3 µM (≈ 13.3 µg/mL) | Activity [14]: Active | Activity [15]: Active | Activity [16]: 99.3% | Activity [17]: 40.3% | hemolysis at 1 h, 25 µM [18]: 3.13% | Survival [19]: > 96 h | Activity [20]: Active | LC50 [21]: 187 µM | Activity [22]: Dose-Dependent Effect | hemolysis at 1 h, 100 µM [23]: 5.57% | Activity [24]: Active | HC50 at 1 h [25]: > 100 µM | Activity [26]: Non-Toxic | Activity [27]: Active | selectivity ratio [28]: > 15.8
